Measurements published in patent US7932262B2 (Novartis AG, priority 2006, dated 2011).
Like-named read-outs stand apart in the source and are kept apart here.

Columns and labels:
PDK1 kinase = target: T1, PDK1 kinase (Homo sapiens, UniProt O15530); experiment: PDK1 Kinase Alpha Screen Assay; assay type: biochemical
T1 sequence (O15530 1-556): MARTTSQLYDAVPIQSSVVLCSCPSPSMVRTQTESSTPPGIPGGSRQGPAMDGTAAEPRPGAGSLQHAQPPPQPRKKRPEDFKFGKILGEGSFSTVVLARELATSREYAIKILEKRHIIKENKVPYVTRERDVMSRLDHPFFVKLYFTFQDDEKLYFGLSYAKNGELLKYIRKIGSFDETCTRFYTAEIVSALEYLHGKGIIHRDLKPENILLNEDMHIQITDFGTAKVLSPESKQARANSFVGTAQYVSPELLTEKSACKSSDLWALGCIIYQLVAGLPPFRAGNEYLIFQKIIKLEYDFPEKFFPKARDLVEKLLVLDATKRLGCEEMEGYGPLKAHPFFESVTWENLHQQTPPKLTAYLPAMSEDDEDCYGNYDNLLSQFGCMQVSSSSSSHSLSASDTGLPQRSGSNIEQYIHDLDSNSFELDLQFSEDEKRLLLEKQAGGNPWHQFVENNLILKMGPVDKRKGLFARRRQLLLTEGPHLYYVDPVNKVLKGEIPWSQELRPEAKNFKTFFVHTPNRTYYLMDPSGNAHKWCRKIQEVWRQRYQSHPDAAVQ
How it was run: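 Biotinylated PDK1-4 peptide (50 nM) phosphorylated by PDK1 with 10 uM ATP in pH 7.5 Tris/MgCl2/DTT buffer, 2.5% DMSO, for 3-18 hours. EDTA stop, then AlphaScreen detection with phospho-(Ser/Thr) PKA substrate antibody and protein A/streptavidin beads after overnight room-temperature development.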

PC-3 cells = experiment: Cell Proliferation Assay (Cell Titer Glo), PC-3 cell line; assay type: cell-based; conditions: Homo sapiens, read-out: CPEC50 PC3
How it was run: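 PC-3 cells, 1000 cells/well, left to adhere 3-5 h, then exposed for 3 days at 37° C to compounds as 1:3 serial dilutions from 500× DMSO stocks diluted in growth medium. Medium then replaced with fresh medium and viability read by Cell Titer Glo luminescence.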

[1] = PDK1 Kinase Alpha Screen Assay, read-out: PDK1 IC50
[2] = PC-3, Cell Proliferation Assay, PC3

Row | SMILES | IC50 (PDK1 kinase; [1]) | EC50 (PC-3 cells; [2]) | EC50 (PC-3 cells; PC-3, PC3 cells) | further results
1 | O=S(=O)(c1cccc(Nc2ncc3cccc(-c4ccc(NCCN5CCCC5)nc4)c3n2)c1)N1CCOCC1 [Compound 399, N-(3-(morpholinosulfonyl)phenyl)-8-(6-(2-(pyrrolidin-1-yl)ethylamino)pyridin-3-yl)quinazolin-2-amine] | < 5 µM | < 5 µM | – | –
2 | CC(C)N1CCC(Oc2ccc3cnc(Nc4ccc5nn[nH]c5c4)nc3c2)CC1 [Compound 577, N-(1H-benzo[d][1,2,3]triazol-6-yl)-7-(1-isopropylpiperidin-4-yloxy)quinazolin-2-amine] | < 5 µM | 5 to 10 µM | – | –
3 | Cn1cc(-c2cc(Cl)cc3cnc(Nc4ccc(S(N)(=O)=O)cc4)nc23)cn1 [Compound 926, 4-(6-chloro-8-(1-methyl-1H-pyrazol-4-yl)quinazolin-2-ylamino)benzenesulfonamide] | – | – | < 5 µM | IC50 (PDK1 kinase; read-out: PDK1 IC50): < 5 µM
4 | C#Cc1cc2cnc(Nc3ccc(S(N)(=O)=O)cc3)nc2cc1OC1CCN(C(C)C)CC1 [Compound 714, 4-(6-ethynyl-7-(1-isopropylpiperidin-4-yloxy)quinazolin-2-ylamino)benzenesulfonamide] | < 5 µM | – | – | EC50 (PC-3 cells; PC-3, Cell Proliferation Assay, PC3 cells): < 5 µM
5 | CC(=O)Nc1ccc(Nc2ncc3ccc(OC4CCN(C(C)C)CC4)cc3n2)cc1Cl [Compound 320, N-(2-chloro-4-(7-(1-isopropylpiperidin-4-yloxy)quinazolin-2-ylamino)phenyl)acetamide] | < 5 µM | < 5 µM | – | –
6 | CC(=O)Nc1cc(NC(C)=O)cc(Nc2ncc3c(Cl)ccc(OC4CCNCC4)c3n2)c1 [Compound 382, N,N′-(5-(5-chloro-8-(piperidin-4-yloxy)quinazolin-2-ylamino)-1,3-phenylene)diacetamide] | < 5 µM | 5 to 10 µM | – | –
7 | Clc1cc(Nc2ncc3ccc(NC4CCNCC4)cc3n2)ccc1N1CCOCC1 [Compound 363, N2-(3-chloro-4-morpholinophenyl)-N7-(piperidin-4-yl)quinazoline-2,7-diamine] | < 5 µM | < 5 µM | – | –
8 | c1cc(Nc2ncc3ccc(OC4CCNCC4)cc3n2)cc(N2CCOCC2)c1 [Compound 572, N-(3-morpholinophenyl)-7-(piperidin-4-yloxy)quinazolin-2-amine] | < 5 µM | < 5 µM | – | –
9 | C#Cc1cc(OC2CN3CCC2CC3)c2nc(Nc3ccc(S(N)(=O)=O)cc3)ncc2c1 (stereo not shown) [Compound 635, 4-(6-ethynyl-8-(quinuclidin-3-yloxy)quinazolin-2-ylamino)benzenesulfonamide] | < 5 µM | < 5 µM | – | –
10 | O=C(NC1CC1)c1ccc(Nc2ncc3cccc(OC4CCNCC4)c3n2)cc1Cl [Compound 485, 2-chloro-N-cyclopropyl-4-(8-(piperidin-4-yloxy)quinazolin-2-ylamino)benzamide] | < 5 µM | < 5 µM | – | –
11 | CC(C)N1CCC(c2c(O)ccc3cnc(Nc4nc5ccccc5s4)nc23)CC1 [Compound 326, 2-(benzo[d]thiazol-2-ylamino)-8-(1-isopropylpiperidin-4-yl)quinazolin-7-ol] | < 5 µM | 5 to 10 µM | – | –
12 | Clc1cccc(Nc2ncc3cccc(-c4ccc(NCCN5CCCC5)nc4)c3n2)c1 [Compound 398, N-(3-chlorophenyl)-8-(6-(2-(pyrrolidin-1-yl)ethylamino)pyridin-3-yl)quinazolin-2-amine] | < 5 µM | < 5 µM | – | –
13 | O=C(c1ccc(Nc2ncc3c(Cl)ccc(OC4CCNCC4)c3n2)cc1)N1CCOCC1 [Compound 595, (4-(5-chloro-8-(piperidin-4-yloxy)quinazolin-2-ylamino)phenyl)(morpholino)methanone] | < 5 µM | 5 to 10 µM | – | –
14 | CN(C)[C@@H]1CCN(c2ccc(-c3cccc4cnc(Nc5ccc(S(N)(=O)=O)cc5)nc34)cn2)C1 [Compound 951, (R)-4-(8-(6-(3-(dimethylamino)pyrrolidin-1-yl)pyridin-3-yl)quinazolin-2-ylamino)benzenesulfonamide] | – | – | < 5 µM | IC50 (PDK1 kinase; read-out: PDK1 IC50): < 5 µM
15 | O=c1[nH]c2ccc(Nc3ncc4cccc(-c5ccc(NCCN6CCCC6)nc5)c4n3)cc2[nH]1 [Compound 1000, 5-(8-(6-(2-(pyrrolidin-1-yl)ethylamino)pyridin-3-yl)quinazolin-2-ylamino)-1H-benzo[d]imidazol-2(3H)-one] | – | – | < 5 µM | IC50 (PDK1 kinase; read-out: PDK1 IC50): < 5 µM
16 | CC(C)N1CCC(Oc2cccc3cnc(Nc4ccccc4)nc23)CC1 [Compound 534, 8-(1-isopropylpiperidin-4-yloxy)-N-phenylquinazolin-2-amine] | < 5 µM | < 5 µM | – | –
17 | NC(=O)c1cc(Nc2ncc3ccc(OC4CCNCC4)cc3n2)cc(C(F)(F)F)c1 [Compound 588, 3-(7-(piperidin-4-yloxy)quinazolin-2-ylamino)-5-(trifluoromethyl)benzamide] | < 5 µM | < 5 µM | – | –
18 | Cn1cc(-c2cccc3cnc(Nc4ccc(S(N)(=O)=O)cc4)nc23)cn1 [Compound 931, 4-(8-(1-methyl-1H-pyrazol-4-yl)quinazolin-2-ylamino)benzenesulfonamide] | – | – | 5 to 10 µM | IC50 (PDK1 kinase; read-out: PDK1 IC50): < 5 µM
19 | C#Cc1cc2cnc(Nc3ccc(C(=O)NC(C)C)cc3)nc2cc1-c1ccc2c(c1)CCNC2=O [Compound 1039, 4-(6-ethynyl-7-(1-oxo-1,2,3,4-tetrahydroisoquinolin-6-yl)quinazolin-2-ylamino)-N-isopropylbenzamide] | – | – | < 5 µM | IC50 (PDK1 kinase; head of the second part of Table 4: BV11261, read-out: PDK1 BV11261): < 5 µM
20 | c1csc(-c2cc(OC3CNC3)c3nc(Nc4ccc(N5CCOCC5)cc4)ncc3c2)n1 [Compound 706, 8-(azetidin-3-yloxy)-N-(4-morpholinophenyl)-6-(thiazol-2-yl)quinazolin-2-amine] | < 5 µM | < 5 µM | – | –
21 | O=c1[nH]c2ccc(Nc3ncc4ccc(OC5CCNCC5)cc4n3)cc2[nH]1 [Compound 330, 5-(7-(piperidin-4-yloxy)-quinazolin-2-ylamino]-1H-benzo[d]imidazol-2(3H)-one] | < 5 µM | 5 to 10 µM | – | –
22 | CN1CCN(C(=O)c2cncc(-c3cccc4cnc(Nc5ccc(S(N)(=O)=O)cc5)nc34)c2)CC1 [Compound 977, 4-(8-(5-(4-methylpiperazine-1-carbonyl)pyridin-3-yl)quinazolin-2-ylamino)benzenesulfonamide] | – | – | 5 to 10 µM | IC50 (PDK1 kinase; read-out: PDK1 IC50): < 5 µM
23 | O=C(c1ccc(Nc2ncc3c(Cl)ccc(OC4CNC4)c3n2)cc1)N1CCOCC1 [Compound 608, (4-(8-(azetidin-3-yloxy)-5-chloroquinazolin-2-ylamino)phenyl)(morpholino)methanone] | < 5 µM | 5 to 10 µM | – | –
24 | CC(C)N1CCC(Oc2cccc3cnc(Nc4cccc(Cl)c4)nc23)CC1 [Compound 528, N-(3-chlorophenyl)-8-(1-isopropylpiperidin-4-yloxy)quinazolin-2-amine] | < 5 µM | < 5 µM | – | –
25 | Cc1cc(Nc2ncc3ccc(O)c(C4CCN(C(C)C)CC4)c3n2)ccc1F [Compound 1030, 2-(4-fluoro-3-methylphenylamino)-8-(1-isopropylpipenidin-4-yl)quinazolin-7-ol] | – | – | 5 to 10 µM | IC50 (PDK1 kinase; read-out: PDK1 IC50): < 5 µM
26 | NS(=O)(=O)c1ccc(Nc2ncc3cccc(-c4cncc(C(=O)NCCN5CCCC5)c4)c3n2)cc1 [Compound 979, N-(2-(pyrrolidin-1-yl)ethyl)-5-(2-(4-sulfamoylphenylamino)quinazolin-8-yl)nicotinamide] | – | – | 5 to 10 µM | IC50 (PDK1 kinase; read-out: PDK1 IC50): < 5 µM
